The values that follow come from paper PMC10766943, “Synthesis, characterization, Hirshfeld surface analysis, antioxidant and selective β-glucuronidase inhibitory studies of transition metal complexes of hydrazide based Schiff base ligand” (Scientific Reports, 2024).

The test system of one experiment is β-glucuronidase. Conditions: cited from earlier work.
The target of the next experiment is T1, β-glucuronidase enzyme (Bos taurus, UniProt A3KMY8).
T1 sequence (A3KMY8 24-652): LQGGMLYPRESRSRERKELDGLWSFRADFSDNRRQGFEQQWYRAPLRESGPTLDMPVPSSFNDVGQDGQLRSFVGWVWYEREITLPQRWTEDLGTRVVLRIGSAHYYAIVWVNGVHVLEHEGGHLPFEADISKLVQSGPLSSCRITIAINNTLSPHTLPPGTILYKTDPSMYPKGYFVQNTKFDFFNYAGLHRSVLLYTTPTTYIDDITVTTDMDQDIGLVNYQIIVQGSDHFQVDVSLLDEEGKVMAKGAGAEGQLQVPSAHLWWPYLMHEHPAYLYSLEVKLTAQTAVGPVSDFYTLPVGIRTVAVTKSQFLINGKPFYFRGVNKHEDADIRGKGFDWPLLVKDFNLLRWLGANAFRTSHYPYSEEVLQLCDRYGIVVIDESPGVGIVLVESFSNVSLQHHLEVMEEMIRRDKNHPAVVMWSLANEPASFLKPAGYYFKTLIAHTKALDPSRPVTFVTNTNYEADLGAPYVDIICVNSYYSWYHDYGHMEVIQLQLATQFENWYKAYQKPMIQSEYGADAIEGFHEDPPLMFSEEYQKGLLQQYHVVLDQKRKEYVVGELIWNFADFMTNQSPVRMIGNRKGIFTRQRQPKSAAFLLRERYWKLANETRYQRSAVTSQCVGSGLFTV
Put plainly: β-Glucuronidase inhibitory activity (p-nitrophenyl-β-D-glucuronide, 405 nm). The following applies: Conc. 0.05 mM. In kind it is biochemical. The method, then: β-Glucuronidase inhibitory activity by hydrazide Schiff base ligand (H-AHMB) and its metal (II) complexes was investigated using standard procedure. […] According to the procedure 185 µL of 0.1 M acetate buffer, 5 µL compound to be tested and 10 µL of enzyme solution were mixed and incubated at 37 °C for 30 min. SpectraMax plus 384, Molecular Devices, USA was used to read on a multiplate reader at 405 nm after the addition of 0.4 mM p-nitrophenyl-β-D-glucuronide (50 µL). All experiments were performed in triplicate.

Experiment [1] is described as follows: DPPH radical scavenging. The following applies: for IC50: DPPH scavenging. The method, then:
The synthetic Schiff base ligand and its metal complexes were tested for their ability to scavenge DPPH radicals using the methodology described by Soare, Dinis, Cunha, and Almeida in 1997[64]. Initially, 1 mL of 0.2 mM DPPH dissolved in methanol was combined with 0.1 mL of each sample at 250, 500, 750, and 1000 µg/mL concentrations. For 20 min, the reaction mixture was kept at 28 °C and kept in the dark. Methanol served as the control, which had all the components but no sample. A UV/Vis spectrophotometer was used to detect the absorbance at 517 nm in order to assess the DPPH radical scavenging activity. For comparison, the DPPH radical scavenging capacity of ascorbic acid was also determined. %Inhibitioneffect=Ac-As/Ac×100
Ac = Absorbance by the control, As = Absorbance by the sample[37].
A general note: The DPPH test is a chemical assay of radical scavenging.

Experiment [2] is described as follows: DPPH radical scavenging. Conditions: Conc. 0.05 mM.

On to `CC(=O)O[C@@H]1C(=O)O[C@H]2[C@@H]1OC(=O)[C@@H]2OC(C)=O` [2,5-di-O-acetyl-D-glucaro-1,4:6,3-Dilactone], for which the “inhibition of the β-glucuronidase enzyme” value in the experiment on β-glucuronidase is reported as “marked inhibition”.
`O=C[C@H](O)[C@H]1OC(=O)[C@@H](O)[C@H]1O` [D-glucurono-γ-lactone]: in the experiment with β-glucuronidase, the “inhibition of the β-glucuronidase enzyme” value is “marked inhibition”.
As a reminder, the % inhibition is how much of the control response was suppressed. A lower % inhibition goes with a response near the control. `O=C1OC(C(O)C(=O)O)C(O)C1O` [D-saccharic acid-1,4-lactone, reference compound]: the “% inhibition” value on β-glucuronidase enzyme was 89.4%.
As a reminder, the IC50 is the point on the concentration scale where inhibition reaches its midpoint. Low readings indicate greater potency, high ones weaker potency. For the compound `O=C(O)c1cc(O)c(O)c(O)c1` [Gallic acid, reference compound], in the experiment “DPPH radical scavenging [1]”, the half-inhibitory concentration (IC50) was determined as 63 ± 0.43 µM. Further, the “% Radical scavenging activity” value in “DPPH radical scavenging [2]” is on record as 93.13%.
As to `COc1cc(C=NNC(=O)c2ccccc2N)ccc1O` [H-AHMB, N′-[(4-hydroxy-3-methoxyphenyl)methylidene] 2-aminobenzohydrazide], the “antioxidant potential against DPPH free radicals (in words)” value in the experiment “DPPH radical scavenging [1]” was “inactive”. Further, the “% Radical scavenging activity” value in the experiment “DPPH radical scavenging [2]” worked out at 22.97%.
On to “Cobalt adduct with N′-[(4-hydroxy-3-methoxyphenyl)methylidene] 2-aminobenzohydrazide [Co-AHMB]”, for which the “% inhibition” value at β-glucuronidase enzyme amounted to 78.8%. Besides, in “DPPH radical scavenging [1]”, the IC50 worked out at 98.2 ± 1.78 µM. Also, the “% Radical scavenging activity” value in “DPPH radical scavenging [2]” is 88.46%.
On to “Copper adduct with N′-[(4-hydroxy-3-methoxyphenyl)methylidene] 2-aminobenzohydrazide [Cu-AHMB]”, for which the “% inhibition” value at β-glucuronidase enzyme is 73.3%. Further, in the experiment “DPPH radical scavenging [1]”, the IC50 came to 183 ± 6.6 µM. Also, in “DPPH radical scavenging [2]”, the “% Radical scavenging activity” value was determined as 84.29%.
The like results for “Nickel adduct with N′-[(4-hydroxy-3-methoxyphenyl)methylidene] 2-aminobenzohydrazide [Ni-AHMB]” were, in that order, 96.0%, 467 ± 2.9 µM and 52.40%.
For “Zinc adduct with N′-[(4-hydroxy-3-methoxyphenyl)methylidene] 2-aminobenzohydrazide [Zn-AHMB]”, the “% inhibition” value at β-glucuronidase enzyme is recorded as 98.3%. Moreover, the “% Radical scavenging activity” value in the experiment “DPPH radical scavenging [2]” stood at 49.16%.
